Measurements as given in US9440964B2, “Pesticidal compositions and processes related thereto” (Dow AgroSciences LLC, priority 2011, dated 2016).
Like-named read-outs stand apart in the source and are kept apart here.

Assays:
[1] = test system: BAW (Spodoptera exigua); test: Bioassay on Beet Armyworm (BAW), 128-well diet tray; type: in vivo; conditions: Spodoptera exigua, 168 h, read-out: Rating BAW
Protocol: (§1) Certain molecules disclosed in this document were tested against BAW and CEW using procedures described in the following examples. In the reporting of the results, the “BAW & CEW Rating Table” was used (See Table Section).
Bioassays on BAW (Spodoptera exigua)
(§2) Trays were covered with a clear self-adhesive cover and held at 25° C., 14:10 light-dark for five to seven days. Percent mortality was recorded for the larvae in each well; activity in the eight wells was then averaged. The results are indicated in the table entitled “Table ABC: Biological Results” (See Table Section).

[2] = test system: CEW (Helicoverpa zea); test: Bioassay on Corn Earworm (CEW), 128-well diet tray; type: in vivo; conditions: Helicoverpa zea, 168 h, percent mortality, second instar larvae, five to seven days; for pest or weed control at 50 µg/cm2: 50 μg/cm^2 on diet, read-out: Rating CEW; for pest or weed control at 0.5 µg/cm2: 0.5 μg/cm^2 on diet, read-out: Rating CEW (*Tested at 0.5 μg/cm^2)
Protocol: as §1
Bioassays on CEW (Helicoverpa zea)
as §2

[3] = percent mortality, second instar larvae, 50 μg/cm^2 on diet, five to seven days

| SMILES | pest or weed control at 50 µg/cm2 [1, 3] [%] | pest or weed control at 50 µg/cm2 [2] [%] | pest or weed control at 0.5 µg/cm2 [2] [%] | pest or weed control at 50 µg/cm2 [1] [%] |
| --- | --- | --- | --- | --- |
| CC(C)c1ccccc1N1C(=O)CS/C1=C(/C#N)C(=O)Nc1ccc(-c2ncn(-c3ccc(OC(F)(F)F)cc3)n2)cc1 [Molecule A31, (Z)-2-Cyano-2-(3-(2-isopropylphenyl)-4-oxothiazolidin-2-ylidene)-N-(4-(1-(4-(trifluoromethoxy)phenyl)-1H-1,2,4-triazol-3-yl)phenyl)acetamide] | 50 to 100 | 50 to 100 |  |  |
| CC(C)c1ccccc1N/C(S)=N/C(=O)Nc1ccc(-c2nnc(-c3ccc(OC(F)(F)C(F)(F)F)cc3)o2)cc1 [Molecule A96, N-[[(2-isopropyllphenyl)amino]thioxomethyl]-N′-((4-(5-(4-(perfluoroethoxy)phenyl)-1,3,4-oxadiazol-2-yl)phenyl))urea] | 50 to 100 |  |  |  |
| COc1ccc(N/C(S)=N/C(=O)Nc2ccc(-c3ncn(-c4ccc(OC(F)(F)F)cc4)n3)cc2)c(C)c1 [Molecule A98] | 50 to 100 |  | 50 to 100 |  |
| Cc1ccc(F)c(N/C(S)=N/C(=O)Nc2ccc(-c3ncn(-c4ccc(OC(F)(F)F)cc4)n3)cc2)c1 [Molecule A89] | 50 to 100 |  | 50 to 100 |  |
| Cc1cccc(N2C(=O)CS/C2=N\C(=O)Nc2ccc(-c3ncn(-c4ccc(OC(F)(F)F)cc4)n3)cc2)c1C(C)C [Molecule A108] | 50 to 100 |  | 50 to 100 |  |
| CC(C)c1ccccc1NC(=O)NC(=O)Nc1ccc(-c2ncn(-c3ccc(OC(F)(F)F)cc3)n2)cc1 [Molecule A13, 1-(2-isopropylphenyl)-3-[[4-[1-[4-(trifluoromethoxy)phenyl]-1,2,4-triazol-3-yl]phenyl]carbamoyl]urea] | 50 to 100 | 50 to 100 |  |  |
| CC(C)C(=O)OCS/C(=N/C(=O)Nc1ccc(-c2ncn(-c3ccc(OC(F)(F)F)cc3)n2)cc1)Nc1c(F)cccc1F [Molecule A61] | 50 to 100 | 50 to 100 |  |  |
| CC(C)c1ccc(F)cc1N1C(=O)CS/C1=N\C(=O)Nc1ccc(-c2ncn(-c3ccc(OC(F)(F)F)cc3)n2)cc1 [Molecule A86] | 50 to 100 |  | 50 to 100 |  |
| Cc1cccc(C)c1N/C(S)=C/C(=O)Nc1ccc(-c2ncn(-c3ccc(OC(F)(F)F)cc3)n2)cc1 [Molecule A23, 3-((2,6-dimethylphenyl)amino)-3-thioxo-N-(4-(1-(4-(trifluoromethoxy)phenyl)-1H-1,2,4-triazol-3-yl)phenyl)propanamide] | 50 to 100 | 50 to 100 |  |  |
| CC(C)c1ccccc1N1C(=O)CS/C1=N\C(=O)Nc1ccc(-c2nnc(-c3ccc(OC(F)(F)C(F)(F)F)cc3)o2)cc1 [Molecule A102, (Z)-1-(3-(2-isopropylphenyl)-4-oxothiazolidin-2-ylidene)-3-(4-(5-(4-(perfluoroethoxy)phenyl)-1,3,4-oxadiazol-2-yl)phenyl)urea] |  |  | 50 to 100 |  |
| Cc1ccccc1N/C(S)=C/C(=O)Nc1ccc(-c2ncn(-c3ccc(OC(F)(F)F)cc3)n2)cc1 [Molecule A22, 3-thioxo-3-(o-tolylamino)-N-(4-(1-(4-(trifluoromethoxy)phenyl)-1H-1,2,4-triazol-3-yl)phenyl)propanamide] | 50 to 100 | 50 to 100 |  |  |
| Cc1ccc(N2C(=O)CS/C2=N\C(=O)Nc2ccc(-c3ncn(-c4ccc(OC(F)(F)F)cc4)n3)cc2)c(C(C)C)c1 [Molecule A88] | 50 to 100 |  | 50 to 100 |  |
| O=C(/N=C1\SCC(=O)N1c1ccc(Cl)cc1Cl)Nc1ccc(-c2ncn(-c3ccc(OC(F)(F)F)cc3)n2)cc1 [Molecule A92] | 50 to 100 |  | 50 to 100 |  |
| CC(C)c1cccc(Cl)c1N/C(S)=N/C(=O)Nc1ccc(-c2ncn(-c3ccc(OC(F)(F)F)cc3)n2)cc1 [Molecule A81] | 50 to 100 | 50 to 100 |  |  |
| CC(C)c1c(F)cccc1N1C(=O)CS/C1=N\C(=O)Nc1ccc(-c2ncn(-c3ccc(OC(F)(F)F)cc3)n2)cc1 [Molecule A109] | 50 to 100 |  | 50 to 100 |  |
| CC(C)c1ccccc1N/C(S)=N/C(=O)Nc1ccc(-c2ncn(-c3ccc(OC(F)(F)F)cc3)n2)cc1 [Molecule A48] | 50 to 100 | 50 to 100 |  |  |
| CC(C)c1cc(F)ccc1N/C(S)=N/C(=O)Nc1ccc(-c2ncn(-c3ccc(OC(F)(F)F)cc3)n2)cc1 [Molecule A116] | 50 to 100 |  | 50 to 100 |  |
| CCCc1ccccc1N/C(S)=N/C(=O)Nc1ccc(-c2ncn(-c3ccc(OC(F)(F)F)cc3)n2)cc1 [Molecule A64] | 50 to 100 |  | 50 to 100 |  |
| Cc1cccc(C)c1N/C(O)=C/C(=O)Nc1ccc(-c2ncn(-c3ccc(OC(F)(F)F)cc3)n2)cc1 [Molecule A32, (Z)-3-(2,6-dimethylphenylamino)-3-hydroxy-I-(4-(1-(4-(trifluoromethoxy)phenyl)-1H-1,2,4-triazol-3-yl)phenyl)acrylamide] | 50 to 100 | 50 to 100 |  |  |

| SMILES | pest or weed control at 50 µg/cm2 [1, 3] [%] | pest or weed control at 50 µg/cm2 [2] [%] | pest or weed control at 0.5 µg/cm2 [2] [%] | pest or weed control at 50 µg/cm2 [1] [%] |
| --- | --- | --- | --- | --- |
| Cc1cccc(C)c1N/C(S)=N/C(=O)Nc1ccc(-c2ncn(-c3ccc(C(F)(F)F)cc3)n2)cc1 [Molecule A12] | 50 to 100 | 50 to 100 |  |  |
| CC(C)c1ccccc1N/C(S)=N/C(=O)Nc1ccc(-c2ncn(-c3ccc(OC(F)(F)C(F)(F)F)cc3)n2)cc1 [Molecule A112] | 50 to 100 |  |  |  |
| Cc1ccc(N/C(S)=N/C(=O)Nc2ccc(-c3ncn(-c4ccc(OC(F)(F)F)cc4)n3)cc2)c(C)c1 [Molecule A68] | 50 to 100 |  | 50 to 100 |  |
| Cc1cc(C)c(N2C(=O)C(C)S/C2=N\C(=O)Nc2ccc(-c3ncn(-c4ccc(OC(F)(F)F)cc4)n3)cc2)c(C)c1 (stereo not drawn) [Molecule A37] | 50 to 100 | 50 to 100 |  |  |
| Cc1cc(C)c(N2C(=O)CS/C2=N\C(=O)Nc2ccc(-c3ncn(-c4ccc(OC(F)(F)F)cc4)n3)cc2)c(C)c1 [Molecule A36] | 50 to 100 | 50 to 100 |  |  |
| Cc1cccc(C)c1N1CC(C)CS/C1=N\C(=O)Nc1ccc(-c2ncn(-c3ccc(OC(F)(F)F)cc3)n2)cc1 (stereo not drawn) [Molecule A39] | 50 to 100 | 50 to 100 |  |  |
| COc1ccc(N/C(=N/C(=O)Nc2ccc(-c3ncn(-c4ccc(OC(F)(F)F)cc4)n3)cc2)SCS[C@@H]2O[C@@H](C)[C@H](OC)[C@@H](OC)[C@H]2OC)c(C)c1 [Molecule A10, (Z)-(((2S,3R,4R,5S,6S)-3,4,5-Trimethoxy-6-methyltetrahydro-2H-pyran-2-yl)thio)methyl N-(4-methoxy-2-methylphenyl)-N′-((4-(1-(4-(trifluoromethoxy)phenyl)-1H-1,2,4-triazol-3-yl)phenyl)carbamoyl) carbamimidothioate] | 50 to 100 | 50 to 100 |  |  |
| N#C/C(C(=O)Nc1ccc(-c2ncn(-c3ccc(OC(F)(F)F)cc3)n2)cc1)=C(/S)Nc1ccccc1-c1ccccc1 [Molecule A27, (Z)-3-([1,1′-Biphenyl]-2-ylamino)-2-cyano-3-mercapto-N-(4-(1-(4-(trifluoromethoxy)phenyl)-1H-1,2,4-triazol-3-yl)phenyl)acrylamide] |  | 0 to 50 |  |  |
| Cc1cc(C)c(-n2c(C)cs/c2=N\C(=O)Nc2ccc(-c3ncn(-c4ccc(OC(F)(F)F)cc4)n3)cc2)c(C)c1 [Molecule A43, (Z)-1-(3-mesityl-4-methylthiazol-2(3H)-ylidene)-3-(4-(1-(4-(trifluoromethoxy)phenyl)-1H-1,2,4-triazol-3-yl)phenyl)urea] |  | 50 to 100 |  |  |
| Cc1cccc(C)c1N/C(S)=C(\C#N)C(=O)Nc1ccc(-c2ncn(-c3ccc(OC(F)(F)F)cc3)n2)cc1 [Molecule A28, (Z)-2-Cyano-3-mercapto-3-((2,6-dimethylphenyl)amino)-N-(4-(1-(4-(trifluoromethoxy)phenyl)-1H-1,2,4-triazol-3-yl)phenyl)acrylamide] |  | 50 to 100 |  |  |
| Cc1cc(C)cc(N2C(=O)CS/C2=N\C(=O)Nc2ccc(-c3ncn(-c4ccc(OC(F)(F)F)cc4)n3)cc2)c1 [Molecule A104] |  |  | 50 to 100 |  |
| Cc1cccc(C)c1-n1c(C)cs/c1=N\C(=O)Nc1ccc(-c2ncn(-c3ccc(OC(F)(F)F)cc3)n2)cc1 [Molecule A42] | 0 to 50 |  |  |  |
| O=C(/N=C1\SCC(=O)N1c1ccccc1C1CC1)Nc1ccc(-c2ncn(-c3ccc(OC(F)(F)F)cc3)n2)cc1 [Molecule A66] | 50 to 100 |  |  |  |
| CC(C)(C)c1ccccc1N1C(=O)CS/C1=N\C(=O)Nc1ccc(-c2ncn(-c3ccc(OC(F)(F)F)cc3)n2)cc1 [Molecule A95] |  |  | 50 to 100 |  |
| CC(C)c1ccccc1N/C(S)=N/C(=O)Nc1ccc(-c2ncn(-c3ccc(C(F)(F)C(F)(F)C(F)(F)F)cc3)n2)cc1 [Molecule A113] |  |  |  | 50 to 100 |
| Cc1cccc(N/C(S)=N/C(=O)Nc2ccc(-c3ncn(-c4ccc(OC(F)(F)F)cc4)n3)cc2)c1C [Molecule A71] | 50 to 100 |  |  |  |
| Cc1ccc(C(C)C)c(N/C(S)=N/C(=O)Nc2ccc(-c3ncn(-c4ccc(OC(F)(F)F)cc4)n3)cc2)c1 [Molecule A83] | 50 to 100 |  |  |  |
| CC(C)c1ccccc1N/C(S)=C(\C#N)C(=O)Nc1ccc(-c2ncn(-c3ccc(OC(F)(F)F)cc3)n2)cc1 [Molecule A25, (Z)-2-cyano-3-((2-isopropylphenyl)amino)-3-mercapto-N-(4-(1-(4-(trifluoromethoxy)phenyl)-1H-1,2,4-triazol-3-yl)phenyl)acrylamide] |  | 0 to 50 |  |  |
